Reference: patent US20240417387A1, “SULFONYLPIPERAZINYL COMPOUNDS FOR TREATMENT OF BACTERIAL INFECTIONS” (Hoffmann-La Roche Inc., priority 2021, published 2024)
In brackets after ≈: the same amount, converted by molar mass. Where two headings read alike, the source gives them in different places.

Key:
[1] = target: Escherichia coli UDP-2,3-diacylglucosamine hydrolase (LpxH) (Escherichia coli (strain K12), UniProt P43341); assay: Enzymatic IC50 assay of Escherichia coli LpxH (UMP/CMP-Glo luminescence); format: biochemical
Sequence of Escherichia coli UDP-2,3-diacylglucosamine hydrolase (LpxH) (P43341 whole entry): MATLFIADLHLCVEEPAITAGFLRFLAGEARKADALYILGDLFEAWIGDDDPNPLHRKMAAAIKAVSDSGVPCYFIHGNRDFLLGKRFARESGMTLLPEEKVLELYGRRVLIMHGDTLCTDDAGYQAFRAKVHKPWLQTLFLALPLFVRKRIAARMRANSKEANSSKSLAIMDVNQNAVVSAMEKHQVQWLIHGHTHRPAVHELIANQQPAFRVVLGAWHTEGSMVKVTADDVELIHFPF
Method: The inhibitory potency of compounds of Escherichia coli UDP-2,3-diacylglucosamine hydrolase (LpxH) was determined in an enzymatic assay. UDP-2,3-diacylglucosamine (UDP-DAG) was purified from the Caulobacter crescentus LpxI D225A mutant protein that contained a tightly bound UDP-DAG molecule. The enzyme was diluted using assay buffer containing 50 mM NaCl, 20 mM Tris-HCl pH7.5, 2.5 mM MnCl2, 0.01% Triton X-100.1 mg/mL BSA, and the final concentration is 2 nM. The compounds were diluted by Agilent liquid handler Bravo, the compound's serial dilution dose ranges from 100 μM to 1.7 nM. Then the enzyme and compounds mixture were incubated at room temperature for 10 mins. The enzymatic assay was started by adding UDP-DAG (FAC is 5 μM) and incubated for 20 mins at room temperature. The plate was then heated to 95° C. for 15 mins on a water batch to stop the reaction. The hydrolysis of UDP-DAG by LpxH yielded 2,3-diacylglucosamine 1-phosphate (lipid X) and UMP, which was converted to ATP and quantified by the luciferase reaction using the UMP/CMP-Glo™ Glycosyltransferase Assay kit from Promega. The compound's inhibitory effect of LpxH is determined by measuring the light change using a luminometer (Envision).

[2] = system: Escherichia coli ATCC 25922; assay: Minimal Inhibitory Concentration (MIC) broth dilution assay, E. coli ATCC 25922; format: cell-based; details: Escherichia coli
Method: (§1) The antibacterial activity of molecules was evaluated against the commonly used quality control strain Escherichia coli BW 25113, Escherichia coli ATCC 25922 and the rifampin-resistant mutant strain Klebsiella pneumonia ATCC 43816. Escherichia co/i BW 25113 was obtained from the Coli Genetic Stock Center (CGSC) (strain 7636). Both Escherichia coli ATCC 25922 and Klebsiella pneumonia ATCC 43816 were originally derived from human clinical samples and are available from ATCC (American Type Culture Collection). The in vitro potency of compounds to inhibit Escherichia coli (BW 25113, ATCC 25922) and Klebsiella pneumonia (ATCC 43816) growth was assessed by the MIC (Minimal Inhibitory Concentration) broth dilution method. Specifically compound dilutions were prepared from 10 mM DMSO stock solutions as follows: i) serial 2-fold dilution in 20 μL DMSO were prepared in a master plate (Greiner, Cat No: 651201), ii) 180 μL sterile distilled water was added to each aliquot and iii) 10 μL diluted compounds were transferred into a new assay plate (Costar, 3599).
(§2) Vials of each test microorganisms were maintained frozen in the vapor phase of a liquid nitrogen freezer. Single-use frozen vials of the three strains Escherichia coli BW 25113, Escherichia coli ATCC 25922 (KWTKSTTK, 0335K) and Klebsiella pneumonia ATCC 43816, with predetermined CFU/mL, were taken out from the freezer, thawed at room temperature, and diluted in Cation-Adjusted Mueller Hinton Broth (CAMVIHB) to achieve a final inoculum of 5×10^5 CFU/mL. 90 μL bacteria containing broth was dispensed to the assay plate containing the pre-dispensed compound dilutions and mixed by pipetting 5 times.
(§3) Then the assay plates were incubated for 20 hours at 35° C. in ambient air. Following incubation, the MIC […], the lowest concentration of drug that inhibits visible growth of the microorganism was read with the help of a magnification mirror and recorded.

[3] = system: Klebsiella pneumonia ATCC 43816; assay: Minimal Inhibitory Concentration (MIC) broth dilution assay, K. pneumonia ATCC 43816; format: cell-based; details: Klebsiella pneumoniae, ATCC43816, 20 hours at 35° C., CAMHB, read-out: MIC K. p ATCC 43816
Method: as §1, §2, §3

[4] = system: Escherichia coli BW 25113; assay: Minimal Inhibitory Concentration (MIC) broth dilution assay, E. coli BW 25113; format: cell-based; details: Escherichia coli, BW25113, 20 hours at 35° C., CAMHB, read-out: MIC E. coli K-12 BW 25113
Method: as §1, §2, §3

[5] = Human microsome stability assay; format: in vitro ADME; details: human liver microsomes 0.5 mg/mL, 37° C., pH 7.4, NADPH regenerating system
Method: The human microsomal stability assay is used for early assessment of metabolic stability of a test compound in human liver microsomes.
Human liver microsomes (Cat.NO.: 452117, Corning, USA) were preincubated with test compound for 10 minutes at 37° C. in 100 mM potassium phosphate buffer, pH 7.4. The reactions were initiated by adding NADPH regenerating system. The final incubation mixtures contained 1 µM test compound, 0.5 mg/mL liver microsomal protein, 1 mM MgCl2, 1 mM NADP, 1 unit/mL isocitric dehydrogenase and 6 mM isocitric acid in 100 mM potassium phosphate buffer, pH 7.4. After incubation times of 0, 3, 6, 9, 15 and 30 minutes at 37° C., 300 μL of cold acetonitrile (including internal standard) was added to 100 μL incubation mixture to terminate the reaction. Following precipitation and centrifugation, the amount of compound remaining in the samples were determined by LC-MS/MS. Controls of no NADPH regenerating system at zero and 30 minutes were also prepared and analyzed. […] (Human microsome clearance: <7 mL/min/kg: low; 7-16.2 mL/min/kg: medium; >16.2 mL/min/kg: high)

[6] = Enzymatic IC50 against Escherichia coli LpxH, read-out: IC50 (converted)
[7] = ATCC25922, 20 h, read-out: MIC E. coli ATCC 25922
[8] = ATCC25922, read-out: MIC E. coli ATCC 25922, broth dilution, 20 hours at 35° C., CAMHB, read-out: MIC E. coli K-12 ATCC 25922

Compound | IC50 [1, 6] | MIC [2, 7] | MIC [3] | MIC [4] | Clearance of Human microsome [5] | IC50 [1] | MIC [2, 8]
N[C@@H]1CC(=O)N(c2ccc(S(=O)(=O)N3CCN(c4cc(C(F)(F)[C@H]5CC[C@H](C(=O)N[C@H]6CNC[C@H]6N)CC5)cc(Cl)n4)CC3)cc2)C1 (stereo in doubt) [Example 011, Trans-4-[[2-chloro-6-[4-[4-[(4R)-4-amino-2-oxo-pyrrolidin-1-yl]phenyl]sulfonylpiperazin-1-yl]-4-pyridyl]-difluoro-methyl]-N-[cis-4-aminopyrrolidin-3-yl]cyclohexanecarboxamide] | 17.3 nM | 1.1 µg/mL (≈ 1.58 µM) | 1.1 µg/mL (≈ 1.58 µM) | 1.1 µg/mL (≈ 1.58 µM) | 11.93 mL/min/kg | – | –
COC(=O)[C@H]1CC[C@H](C(F)(F)c2cc(Cl)nc(N3CCN(S(=O)(=O)c4ccc(N5CC(N)CC5=O)cc4)CC3)c2)CC1 (stereo partly drawn) [Example 001, Trans-methyl 4-[[2-[4-[4-(4-amino-2-oxo-pyrrolidin-1-yl)phenyl]sulfonylpiperazin-1-yl]-6-chloro-4-pyridyl]-difluoro-methyl]cyclohexanecarboxylate] | 3.19 nM | 0.98 µg/mL (≈ 1.57 µM) | 0.98 µg/mL (≈ 1.57 µM) | 0.49 µg/mL (≈ 0.783 µM) | – | – | –
N[C@@H]1CC(=O)N(c2ccc(S(=O)(=O)N3CCN(c4cc(C(F)(F)[C@H]5CC[C@H](C(=O)NCC6CNC6)CC5)cc(Cl)n4)CC3)cc2)C1 [Example 002, Trans-4-[[2-[4-[4-[(4R)-4-amino-2-oxo-pyrrolidin-1-yl]phenyl]sulfonylpiperazin-1-yl]-6-chloro-4-pyridyl]-difluoro-methyl]-N-(azetidin-3-ylmethyl)cyclohexanecarboxamide] | < 2.94 nM | 1.8 µg/mL (≈ 2.65 µM) | 1.8 µg/mL (≈ 2.65 µM) | 1.8 µg/mL (≈ 2.65 µM) | 6.15 mL/min/kg | – | –
NC1CC(=O)N(c2ccc(S(=O)(=O)N3CCN(c4cc(C(F)(F)[C@H]5CC[C@H](C(=O)NCCCO)CC5)cc(Cl)n4)CC3)cc2)C1 (stereo partly drawn) [Example 003, Trans-4-[[2-[4-[4-(4-amino-2-oxo-pyrrolidin-1-yl)phenyl]sulfonylpiperazin-1-yl]-6-chloro-4-pyridyl]-difluoro-methyl]-N-(3-hydroxypropyl)cyclohexanecarboxamide] | – | 4.2 µg/mL (≈ 6.28 µM) | 2.1 µg/mL (≈ 3.14 µM) | 1 µg/mL (≈ 1.49 µM) | 7.41 mL/min/kg | < 2.99 nM | –
NCCNCCNC(=O)c1ccc(C(F)(F)c2cc(Cl)nc(N3CCN(S(=O)(=O)c4ccc(N5C[C@H](N)CC5=O)cc4)CC3)c2)nc1 [Example 028, N-[2-(2-aminoethylamino)ethyl]-6-[[2-chloro-6-[4-[4-[(4R)-4-amino-2-oxo-pyrrolidin-1-yl]phenyl]sulfonylpiperazin-1-yl]-4-pyridyl]-difluoro-methyl]pyridine-3-carboxamide] | 20.2 nM | – | 1.6 µg/mL (≈ 2.31 µM) | 1.6 µg/mL (≈ 2.31 µM) | – | – | 1.6 µg/mL (≈ 2.31 µM)
N[C@@H]1CC(=O)N(c2ccc(S(=O)(=O)N3CCN(c4cc(C(F)(F)[C@H]5CC[C@@H](C(=O)NCCCO)CC5)cc(Cl)n4)CC3)cc2)C1 [Example 032] | < 2.99 nM | 2.2 µg/mL (≈ 3.29 µM) | 2.2 µg/mL (≈ 3.29 µM) | 3.3 µg/mL (≈ 4.93 µM) | – | – | –
NCCCNC(=O)C1CCC(C(F)(F)c2cc(Cl)nc(N3CCN(S(=O)(=O)c4ccc(N5C[C@H](N)CC5=O)cc4)CC3)c2)C1 (stereo partly drawn) [Example 035, N-(3-aminopropyl)-3-[[2-chloro-6-[4-[4-[(4R)-4-amino-2-oxo-pyrrolidin-1-yl]phenyl]sulfonylpiperazin-1-yl]-4-pyridyl]-difluoro-methyl]cyclopentanecarboxamide] | 45.9 nM | – | – | – | 8.90 mL/min/kg | – | –
NCCCNC(=O)C12CC(C(F)(F)c3cc(Cl)nc(N4CCN(S(=O)(=O)c5ccc(N6C[C@H](N)CC6=O)cc5)CC4)c3)(C1)C2 [Example 040] | 6.13 nM | – | – | – | 6.15 mL/min/kg | – | –
NCC(=O)NNC(=O)[C@H]1CC[C@H](C(F)(F)c2cc(Cl)nc(N3CCN(S(=O)(=O)c4ccc(N5C[C@H](N)CC5=O)cc4)CC3)c2)CC1 [Example 050, Trans-N′-(2-aminoacetyl)-4-[[2-chloro-6-[4-[4-[(4R)-4-amino-2-oxo-pyrrolidin-1-yl]phenyl]sulfonylpiperazin-1-yl]-4-pyridyl]-difluoro-methyl]cyclohexanecarbohydrazide] | 2.93 nM | – | 1.1 µg/mL (≈ 1.61 µM) | 2.1 µg/mL (≈ 3.07 µM) | – | – | 1.1 µg/mL (≈ 1.61 µM)
NCCCNC(=O)[C@H]1CC[C@H](C(F)(F)c2cc(Cl)nc(N3CCC(S(=O)(=O)c4ccc(N5C[C@H](N)CC5=O)cc4)CC3)c2)CC1 [Example 062, Trans-N-(3-aminopropyl)-4-[[2-chloro-6-[4-[4-[(4R)-4-amino-2-oxo-pyrrolidin-1-yl]phenyl]sulfonyl-1-piperidyl]-4-pyridyl]-difluoro-methyl]cyclohexanecarboxamide] | 33 nM | – | – | – | 7.74 mL/min/kg | – | –
NC(=O)CNC(=O)[C@H]1CC[C@@H](C(F)(F)c2cc(Cl)nc(N3CCN(S(=O)(=O)c4ccc(N5C[C@H](N)CC5=O)cc4)CC3)c2)CC1 [Example 063, Cis-N-(2-amino-2-oxo-ethyl)-4-[[2-chloro-6-[4-[4-[(4R)-4-amino-2-oxo-pyrrolidin-1-yl]phenyl]sulfonylpiperazin-1-y1]-4-pyridyl]-difluoro-methyl]cyclohexanecarboxamide] | 5.99 nM | – | – | – | – | – | –
C[N+]1(CCN)CCN(C(=O)[C@H]2CC[C@H](C(F)(F)c3cc(Cl)nc(N4CCN(S(=O)(=O)c5ccc(N6C[C@H](N)CC6=O)cc5)CC4)c3)CC2)CC1 [Example 071, Trans-(4R)-4-amino-1-[4-[4-[4-[[4-[4-(2-aminoethyl)-4-methyl-piperazin-4-ium-1-carbonyl]cyclohexyl]-difluoro-methyl]-6-chloro-2-pyridyl]piperazin-1-yl]sulfonylphenyl]pyrrolidin-2-one] | 14.9 nM | – | – | – | 10.73 mL/min/kg | – | –
NCC(N)CNC(=O)[C@H]1CC[C@H](C(F)(F)c2cc(Cl)nc(N3CCN(S(=O)(=O)c4ccc(N5C[C@H](N)CC5=O)cc4)CC3)c2)CC1 (stereo partly drawn) [Example 077, Trans-4-[[2-chloro-6-[4-[4-[(4R)-4-amino-2-oxo-pyrrolidin-1-yl]phenyl]sulfonylpiperazin-1-yl]-4-pyridyl]-difluoro-methyl]-N-(2,3-diaminopropyl)cyclohexanecarboxamide] | 2.93 nM | – | 2.2 µg/mL (≈ 3.22 µM) | 2.2 µg/mL (≈ 3.22 µM) | – | – | 2.2 µg/mL (≈ 3.22 µM)
CNC(=O)c1ccc(C(F)(F)c2cc(Cl)nc(N3CCN(S(=O)(=O)c4ccc(N5CC(NCCCN)CC5=O)cc4)CC3)c2)cc1 (stereo not drawn) [Example 078, 4-[[2-[4-[4-[4-(3-Aminopropylamino)-2-oxo-pyrrolidin-1-yl]phenyl]sulfonylpiperazin-1-yl]-6-chloro-4-pyridyl]-difluoro-methyl]-N-methyl-benzamide] | 5.92 nM | – | 2.1 µg/mL (≈ 3.11 µM) | 1.4 µg/mL (≈ 2.07 µM) | – | – | 2.8 µg/mL (≈ 4.14 µM)
